Experimental data reported in article PMC8474115 (Journal of Medicinal Chemistry, 2021).
Counter-ions that a name gives are not always drawn. Like-named read-outs stand apart in the source and are kept apart here.

Assays:
[1] = target: h5-HT1A (Homo sapiens, UniProt P08908); conditions: 5-HT1AR
Description: For membrane preparation, cells after reaching 90% confluence, were washed with phosphate-buffered saline (PBS), and pelleted by centrifugation (200 × g) in PBS containing 0.1 mM EDTA and 1 mM dithiothreitol.
The total reaction volume was 200 μL. The incubation process was terminated by filtration through UniFilter-96 (PerkinElmer) plates with the FilterMate Universal Harvester (PerkinElmer, #C961962), and radioactivity retained on the filters was quantified on a MicroBeta counter for radiometric detection (PerkinElmer). […] To evaluate the level of nonspecific signal 10 μM of 5-HT for 5-HT1AR and 5-HT7R, 20 μM of mianserin for 5-HT2AR, 10 μM of methiothepine for 5-HT6R and 10 μM of haloperidol for D2LR were used. […] The acquired results were presented as the mean of at least two independent experiments.

[2] = target: T1, Protein Tyr Kinase, LCK (Homo sapiens, UniProt P06239); experiment: Eurofins SafetyScreen panel; type: biochemical
T1 construct: Eurofins (contract screening, SafetyScreen panel) PP223

[3] = target: T2, Muscarinic M1 (Homo sapiens, UniProt P11229); experiment: Eurofins SafetyScreen panel; type: binding
T2 construct: Eurofins (contract screening, SafetyScreen panel) PP223
T2 sequence (P11229 1-460): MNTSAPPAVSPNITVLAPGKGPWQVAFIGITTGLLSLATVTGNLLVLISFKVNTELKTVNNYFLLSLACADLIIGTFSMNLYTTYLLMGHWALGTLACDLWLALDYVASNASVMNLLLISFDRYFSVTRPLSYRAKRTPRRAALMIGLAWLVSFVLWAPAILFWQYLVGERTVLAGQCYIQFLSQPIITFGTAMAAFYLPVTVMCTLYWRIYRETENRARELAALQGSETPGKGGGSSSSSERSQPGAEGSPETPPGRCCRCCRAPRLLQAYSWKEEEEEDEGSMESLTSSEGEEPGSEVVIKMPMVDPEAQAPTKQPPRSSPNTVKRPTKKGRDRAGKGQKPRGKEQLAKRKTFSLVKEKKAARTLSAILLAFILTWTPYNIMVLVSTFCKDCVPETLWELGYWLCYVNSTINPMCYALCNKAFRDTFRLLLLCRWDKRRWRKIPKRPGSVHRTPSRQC

[4] = target: T3, Serotonin Transporter (SERT) (Homo sapiens, UniProt P31645); experiment: Eurofins SafetyScreen panel; type: binding
T3 construct: Eurofins (contract screening, SafetyScreen panel) PP223

[5] = target: T4, Adrenergic α1D (Homo sapiens, UniProt P25100); experiment: Eurofins SafetyScreen panel; type: binding
T4 construct: Eurofins (contract screening, SafetyScreen panel) PP223
T4 sequence (P25100 whole entry): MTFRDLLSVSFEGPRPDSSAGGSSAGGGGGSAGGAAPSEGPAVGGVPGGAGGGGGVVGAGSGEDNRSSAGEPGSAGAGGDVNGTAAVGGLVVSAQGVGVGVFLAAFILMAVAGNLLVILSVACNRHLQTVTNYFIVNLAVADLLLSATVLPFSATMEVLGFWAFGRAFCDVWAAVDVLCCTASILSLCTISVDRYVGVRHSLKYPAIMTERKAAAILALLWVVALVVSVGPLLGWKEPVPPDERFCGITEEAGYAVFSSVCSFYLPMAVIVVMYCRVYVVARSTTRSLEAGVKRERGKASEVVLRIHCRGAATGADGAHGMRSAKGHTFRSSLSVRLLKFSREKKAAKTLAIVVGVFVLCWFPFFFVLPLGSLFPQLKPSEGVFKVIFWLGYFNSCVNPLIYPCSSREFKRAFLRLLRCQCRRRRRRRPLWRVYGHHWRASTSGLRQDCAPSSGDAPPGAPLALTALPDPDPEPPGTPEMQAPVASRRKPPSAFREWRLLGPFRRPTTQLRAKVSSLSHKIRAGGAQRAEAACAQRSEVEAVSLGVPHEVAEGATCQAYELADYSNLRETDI

[6] = target: Glutamate NMDA, Glycine (Rattus norvegicus, UniProt P35439); experiment: Eurofins SafetyScreen panel; type: binding
[7] = target: T5, Cannabinoid CB1 (Homo sapiens, UniProt P21554); experiment: Eurofins SafetyScreen panel; type: binding
T5 construct: purchased Eurofins (Panlabs) SafetyScreen87 Panel
T5 sequence (P21554 whole entry): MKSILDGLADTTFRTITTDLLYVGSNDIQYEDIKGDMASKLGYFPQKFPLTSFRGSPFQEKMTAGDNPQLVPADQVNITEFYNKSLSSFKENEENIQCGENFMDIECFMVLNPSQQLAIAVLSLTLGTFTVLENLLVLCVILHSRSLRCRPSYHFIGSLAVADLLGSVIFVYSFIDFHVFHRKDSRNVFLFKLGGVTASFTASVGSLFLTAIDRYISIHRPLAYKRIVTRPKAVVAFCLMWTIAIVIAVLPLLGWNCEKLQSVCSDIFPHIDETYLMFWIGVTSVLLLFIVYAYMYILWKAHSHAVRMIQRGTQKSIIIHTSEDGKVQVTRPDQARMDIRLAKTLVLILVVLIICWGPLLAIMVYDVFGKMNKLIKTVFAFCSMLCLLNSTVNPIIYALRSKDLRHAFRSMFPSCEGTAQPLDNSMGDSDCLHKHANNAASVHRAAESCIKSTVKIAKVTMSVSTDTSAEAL

[8] = target: T6, Serotonin 5-HT1B (Homo sapiens, UniProt P28222); experiment: Eurofins SafetyScreen panel; type: binding
T6 construct: Eurofins (contract assay)
T6 sequence (P28222 whole entry): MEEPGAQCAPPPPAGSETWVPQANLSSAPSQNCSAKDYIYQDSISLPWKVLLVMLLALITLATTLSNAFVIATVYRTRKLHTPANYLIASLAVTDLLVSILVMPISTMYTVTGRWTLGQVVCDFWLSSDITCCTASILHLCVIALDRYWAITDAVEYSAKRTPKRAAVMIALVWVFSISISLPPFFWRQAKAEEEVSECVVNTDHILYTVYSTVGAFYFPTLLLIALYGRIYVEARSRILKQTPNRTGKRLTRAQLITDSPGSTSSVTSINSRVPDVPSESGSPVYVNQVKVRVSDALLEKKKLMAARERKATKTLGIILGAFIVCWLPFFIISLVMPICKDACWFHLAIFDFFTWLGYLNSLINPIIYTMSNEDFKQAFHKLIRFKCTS

[9] = target: T7, Adrenergic α2A (Homo sapiens, UniProt P08913); experiment: Eurofins SafetyScreen panel; type: binding
T7 construct: Eurofins (contract screening, SafetyScreen panel) PP223
T7 sequence (P08913 1-465): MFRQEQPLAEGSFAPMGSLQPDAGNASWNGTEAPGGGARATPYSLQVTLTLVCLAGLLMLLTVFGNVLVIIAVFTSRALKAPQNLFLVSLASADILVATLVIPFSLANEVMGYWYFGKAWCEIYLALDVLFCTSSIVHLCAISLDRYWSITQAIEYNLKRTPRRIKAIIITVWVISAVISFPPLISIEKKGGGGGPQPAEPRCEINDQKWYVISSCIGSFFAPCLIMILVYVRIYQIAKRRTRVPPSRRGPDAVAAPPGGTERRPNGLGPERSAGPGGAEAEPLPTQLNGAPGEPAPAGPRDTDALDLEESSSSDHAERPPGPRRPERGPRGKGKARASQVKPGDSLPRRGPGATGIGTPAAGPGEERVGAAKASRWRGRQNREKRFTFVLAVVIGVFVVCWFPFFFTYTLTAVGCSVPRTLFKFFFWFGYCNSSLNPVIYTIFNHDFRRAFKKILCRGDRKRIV

[10] = target: CYP2C19 (Homo sapiens, UniProt P33261); experiment: Cytochrome P450 inhibition (Eurofins)
Sequence of CYP2C19 (P33261 whole entry): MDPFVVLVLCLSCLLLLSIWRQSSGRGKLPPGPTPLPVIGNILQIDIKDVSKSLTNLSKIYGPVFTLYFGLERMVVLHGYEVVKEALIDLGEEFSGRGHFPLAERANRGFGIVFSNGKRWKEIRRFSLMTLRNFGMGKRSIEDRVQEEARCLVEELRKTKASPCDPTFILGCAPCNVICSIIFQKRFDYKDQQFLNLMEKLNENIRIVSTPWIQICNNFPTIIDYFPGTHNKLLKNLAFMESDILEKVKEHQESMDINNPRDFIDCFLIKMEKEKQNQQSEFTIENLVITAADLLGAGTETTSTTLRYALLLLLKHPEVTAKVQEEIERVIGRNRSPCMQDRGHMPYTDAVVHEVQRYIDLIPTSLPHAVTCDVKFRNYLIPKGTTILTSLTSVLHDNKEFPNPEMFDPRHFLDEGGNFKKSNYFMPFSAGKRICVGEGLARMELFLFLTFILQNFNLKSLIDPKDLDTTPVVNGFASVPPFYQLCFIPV

[11] = target: T8, Adrenergic α1B (Rattus norvegicus, UniProt P15823); experiment: Eurofins SafetyScreen panel; type: binding
T8 construct: Eurofins (contract screening, SafetyScreen panel) PP223
T8 sequence (P15823 whole entry): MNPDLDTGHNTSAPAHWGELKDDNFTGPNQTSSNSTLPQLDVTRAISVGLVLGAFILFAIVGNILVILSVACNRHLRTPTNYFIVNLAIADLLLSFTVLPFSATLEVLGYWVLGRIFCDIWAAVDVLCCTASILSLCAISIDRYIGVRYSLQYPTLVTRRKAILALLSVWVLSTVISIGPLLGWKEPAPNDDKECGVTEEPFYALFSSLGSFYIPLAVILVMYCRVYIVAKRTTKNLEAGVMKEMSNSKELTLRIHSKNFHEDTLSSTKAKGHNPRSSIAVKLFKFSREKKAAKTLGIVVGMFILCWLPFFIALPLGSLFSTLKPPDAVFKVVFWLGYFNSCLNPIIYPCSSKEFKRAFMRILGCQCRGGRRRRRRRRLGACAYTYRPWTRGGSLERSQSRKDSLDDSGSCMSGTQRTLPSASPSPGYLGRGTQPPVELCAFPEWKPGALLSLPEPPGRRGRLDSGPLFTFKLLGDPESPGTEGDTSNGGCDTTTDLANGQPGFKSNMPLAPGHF

[12] = target: T9, Adrenergic β1 (Homo sapiens, UniProt P08588); experiment: Eurofins SafetyScreen panel; type: binding
T9 construct: Eurofins (contract screening, SafetyScreen panel) PP223
T9 sequence (P08588 whole entry): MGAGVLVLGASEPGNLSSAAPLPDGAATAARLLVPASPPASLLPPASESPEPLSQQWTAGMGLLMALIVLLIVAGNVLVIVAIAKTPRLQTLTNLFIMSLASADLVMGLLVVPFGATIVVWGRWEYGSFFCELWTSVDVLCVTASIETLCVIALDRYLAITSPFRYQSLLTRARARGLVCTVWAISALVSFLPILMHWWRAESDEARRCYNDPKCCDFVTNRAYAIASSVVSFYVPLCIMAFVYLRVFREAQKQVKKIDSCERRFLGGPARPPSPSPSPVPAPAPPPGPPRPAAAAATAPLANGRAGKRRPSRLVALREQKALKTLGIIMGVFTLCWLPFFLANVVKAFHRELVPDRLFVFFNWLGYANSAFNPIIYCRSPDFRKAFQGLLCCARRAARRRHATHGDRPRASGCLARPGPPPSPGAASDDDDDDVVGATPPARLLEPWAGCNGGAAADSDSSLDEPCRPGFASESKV

[13] = target: T10, PPARγ (Homo sapiens, UniProt P37231); experiment: Eurofins SafetyScreen panel; type: binding
T10 construct: Eurofins (contract assay)

[14] = target: T11, Histamine H2 (Homo sapiens, UniProt P25021); experiment: Eurofins SafetyScreen panel; type: binding
T11 construct: purchased Eurofins (Panlabs) SafetyScreen87 Panel

[15] = target: T12, Platelet Activating Factor (PAF) (Homo sapiens, UniProt P25105); experiment: Eurofins SafetyScreen panel; type: binding
T12 construct: Eurofins (contract assay)
T12 sequence (P25105 whole entry): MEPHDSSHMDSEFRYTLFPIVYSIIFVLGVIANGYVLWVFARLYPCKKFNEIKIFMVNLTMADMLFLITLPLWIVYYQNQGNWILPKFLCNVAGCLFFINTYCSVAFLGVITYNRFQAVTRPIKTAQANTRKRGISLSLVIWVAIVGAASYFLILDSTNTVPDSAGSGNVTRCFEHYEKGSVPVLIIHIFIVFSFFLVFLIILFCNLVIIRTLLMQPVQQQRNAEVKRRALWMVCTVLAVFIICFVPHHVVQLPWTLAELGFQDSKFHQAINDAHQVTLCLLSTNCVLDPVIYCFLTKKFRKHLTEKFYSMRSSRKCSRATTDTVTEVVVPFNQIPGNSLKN

[16] = target: T13, COX-2 (Homo sapiens, UniProt P35354); experiment: Eurofins SafetyScreen panel; type: biochemical
T13 construct: Eurofins
T13 sequence (P35354 18-604): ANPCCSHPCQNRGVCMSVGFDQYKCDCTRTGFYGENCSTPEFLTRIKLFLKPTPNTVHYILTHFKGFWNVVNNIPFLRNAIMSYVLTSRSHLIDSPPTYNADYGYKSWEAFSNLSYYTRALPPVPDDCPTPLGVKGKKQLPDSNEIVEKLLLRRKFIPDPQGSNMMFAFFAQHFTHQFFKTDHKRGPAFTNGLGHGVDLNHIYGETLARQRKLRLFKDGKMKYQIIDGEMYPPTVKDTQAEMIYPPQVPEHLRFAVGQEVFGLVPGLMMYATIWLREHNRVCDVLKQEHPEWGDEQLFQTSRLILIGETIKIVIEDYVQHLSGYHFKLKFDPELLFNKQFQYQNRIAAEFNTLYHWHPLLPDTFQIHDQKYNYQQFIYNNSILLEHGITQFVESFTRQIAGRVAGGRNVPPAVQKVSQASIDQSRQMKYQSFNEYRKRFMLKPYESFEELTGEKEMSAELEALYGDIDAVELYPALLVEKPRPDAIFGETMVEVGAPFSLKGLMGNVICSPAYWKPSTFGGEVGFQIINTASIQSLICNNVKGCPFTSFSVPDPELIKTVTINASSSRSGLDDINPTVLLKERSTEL

[17] = target: T14, Cathepsin G (Homo sapiens, UniProt P08311); experiment: Eurofins SafetyScreen panel; type: biochemical
T14 construct: Eurofins
T14 sequence (P08311 21-255): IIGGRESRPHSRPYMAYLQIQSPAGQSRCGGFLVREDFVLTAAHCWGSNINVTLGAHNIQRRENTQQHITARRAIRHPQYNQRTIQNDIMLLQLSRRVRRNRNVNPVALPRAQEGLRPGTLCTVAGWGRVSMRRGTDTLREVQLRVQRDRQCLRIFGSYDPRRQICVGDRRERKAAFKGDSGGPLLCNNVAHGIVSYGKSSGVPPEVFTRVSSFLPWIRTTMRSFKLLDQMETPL

[18] = target: T15, Dopamine D2S (Homo sapiens, UniProt P14416); experiment: Eurofins SafetyScreen panel; type: binding
T15 construct: purchased Eurofins (Panlabs) SafetyScreen87 Panel

[19] = target: T16, Cannabinoid CB2 (Homo sapiens, UniProt P34972); experiment: Eurofins SafetyScreen panel; type: binding
T16 construct: purchased Eurofins (Panlabs) SafetyScreen87 Panel
T16 sequence (P34972 whole entry, looked up): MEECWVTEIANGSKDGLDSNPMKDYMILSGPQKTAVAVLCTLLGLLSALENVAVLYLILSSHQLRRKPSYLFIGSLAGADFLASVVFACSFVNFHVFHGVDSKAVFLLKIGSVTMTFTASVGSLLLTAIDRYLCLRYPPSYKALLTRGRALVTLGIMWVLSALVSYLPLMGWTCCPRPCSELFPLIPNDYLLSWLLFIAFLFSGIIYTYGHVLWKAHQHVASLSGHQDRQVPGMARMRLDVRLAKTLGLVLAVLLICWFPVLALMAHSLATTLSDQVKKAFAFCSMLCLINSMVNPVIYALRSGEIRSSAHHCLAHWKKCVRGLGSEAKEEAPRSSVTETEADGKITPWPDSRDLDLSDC

[20] = read-out: %inh, 10 μM, additional batch

Sequence of h5-HT1A (P08908 whole entry): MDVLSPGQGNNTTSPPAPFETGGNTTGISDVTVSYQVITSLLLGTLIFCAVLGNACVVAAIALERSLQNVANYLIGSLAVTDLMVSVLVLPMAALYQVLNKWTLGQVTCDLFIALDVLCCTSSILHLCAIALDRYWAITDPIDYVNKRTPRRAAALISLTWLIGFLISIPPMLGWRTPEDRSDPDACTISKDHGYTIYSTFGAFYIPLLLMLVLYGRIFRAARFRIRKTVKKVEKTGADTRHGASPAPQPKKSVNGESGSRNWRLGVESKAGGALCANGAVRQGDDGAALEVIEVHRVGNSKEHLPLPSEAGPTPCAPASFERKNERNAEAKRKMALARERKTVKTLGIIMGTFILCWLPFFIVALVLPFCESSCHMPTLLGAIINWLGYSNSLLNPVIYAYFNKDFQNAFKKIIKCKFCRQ

## O=S(=O)(c1cccc(F)c1)n1ccc2c(N3CCNCC3)nc3ccccc3c21 [FPPQ, 1-[(3-Fluorophenyl)sulfonyl]-4-(piperazin-1-yl)-1H-pyrrolo[3,2-c]quinoline dihydrochloride]
[1]
  Ki: 437 nM
[2]
  inhibition at 10 µM: 6%
[3]
  IC50: 7890 nM
  Ki: 1940 nM
[3]; read-out: %inh
  inhibition at 0.1 µM: 3%
  inhibition at 1 µM: 13%
  inhibition at 100 µM: 98%
[4]
  inhibition at 10 µM: 18%
[5]
  inhibition at 10 µM: 24%
[6]
  inhibition at 10 µM: -1%
[7]
  inhibition at 10 µM: 35%
[8]
  IC50: 1170 nM
  Ki: 890 nM
[8]; read-out: %inh, 10 nM
  inhibition at 0.01 µM: 5%
[8]; read-out: %inh, 0.1 μM
  inhibition at 0.1 µM: 4%
[8]; read-out: %inh, 1 μM
  inhibition at 1 µM: 47%
[8]; read-out: %inh, 10 μM
  inhibition at 10 µM: 90%
[8]; [20]
  inhibition at 10 µM: 92%
[9]
  IC50: 220 nM
  Ki: 110 nM
[9]; read-out: %inh, 10 nM
  inhibition at 0.01 µM: 5%
[9]; read-out: %inh, 0.1 μM
  inhibition at 0.1 µM: 32%
[9]; read-out: %inh, 1 μM
  inhibition at 1 µM: 80%
[9]; read-out: %inh, 10 μM
  inhibition at 10 µM: 97%
[9]; [20]
  inhibition at 10 µM: 98%
[10]
  IC50: 10000 nM
[11]
  inhibition at 10 µM: 29%
[12]
  IC50: 300 nM
  Ki: 170 nM
[12]; read-out: %inh, 10 nM
  inhibition at 0.01 µM: -3%
[12]; read-out: %inh, 0.1 μM
  inhibition at 0.1 µM: 27%
[12]; read-out: %inh, 1 μM
  inhibition at 1 µM: 75%
[12]; [20]
  inhibition at 10 µM: 102%
[13]
  inhibition at 10 µM: 28%
[14]
  inhibition at 10 µM: 45%
[15]
  inhibition at 10 µM: 14%
[16]
  inhibition at 10 µM: -13%
[17]
  inhibition at 10 µM: -1%
[18]
  inhibition at 10 µM: 46%
[19]
  inhibition at 10 µM: -21%
